Measurements published in US20240336610A1, “3CL PROTEASE SMALL-MOLECULE INHIBITOR FOR TREATING OR PREVENTING CORONAVIRUS INFECTION, AND USE THEREOF” (THE GLOBAL HEALTH DRUG DISCOVERY INSTITUTE, priority 2021, published 2024).

How the values were obtained:
[1] = biological target: SARS-CoV-2 main protease (3CLpro) (Severe acute respiratory syndrome coronavirus 2 (2019-nCoV) (SARS-CoV-2), UniProt P0DTD1); experiment: Enzyme activity test; format: biochemical; settings: 200 nM recombinant SARS-CoV-2 main protease, 15 μM fluorescent substrate, pH 7.3
[2] = Oral pharmacokinetics in rats; format: in vivo; settings: rat, blood, male SD rats, 15 mg/kg
Procedure: Test Example 2: Measurement of Oral Pharmacokinetics in Rats
Male SD rats were orally administered with 15 mg/kg of the compound in the examples of the present disclosure, and blood samples were collected at 0.083, 0.25, 0.5, 1, 2, 4, and 8 hours respectively. After the samples were treated with anticoagulant EDTA-K2 and acetonitrile and centrifuged, a drug concentration analysis was conducted using LC/MS/MS.

Row | Structure (SMILES) | IC50 [1] [nM] | also measured
1 | CC(=O)N[C@H](C(=O)N1C[C@H]2[C@@H]([C@H]1C(=O)NC(C#N)c1cncc(-c3cn[nH]c3)c1)C2(C)C)C(C)(C)C (stereo partly drawn) [GDI-032, (1R,2S,5S)-N-((5-(1H-pyrazol-4-yl)pyridin-3-yl)(cyano)methyl)-3-((S)-2-acetylamino-3,3-dimethylbutanoyl)-6,6-dimethyl-3-azabi cyclo[3.1.0]hexane-2-carboxamide] | 28 | 
2 | CC(=O)N[C@H](C(=O)N1C[C@H]2[C@@H]([C@H]1C(=O)NC(C#N)c1cncc(-c3ccn[nH]3)c1)C2(C)C)C(C)(C)C (stereo partly drawn) [GDI-035, (1R,2S,5S)-N-((5-(1H-pyrazol-5-yl)pyridin-3-yl)(cyano)methyl)-3-((S)-2-acetylamino-3,3-dimethylbutanoyl)-6,6-dimethyl-3-azabi cyclo[3.1.0]hexane-2-carboxamide] | 17 | 
3 | CC(=O)N[C@H](C(=O)N1C[C@H]2[C@@H]([C@H]1C(=O)NC(C#N)c1c[nH]c3ccccc13)C2(C)C)C(C)(C)C (stereo partly drawn) [GDI-024, (1R,2S,5S)-3-((S)-2-acetamido-3,3-dimethylbutyryl)-N-(cyano(1H-indol-3-yl)methyl)-6,6-dimethyl-3-azabicyclo[3.1.0]hexane-2-c arboxamide] | 66300 | 
4 | CN(C)c1ccc(S(=O)(=O)N[C@H](C(=O)N2C[C@H]3[C@@H]([C@H]2C(=O)NC(C#N)c2cncc4ccccc24)C3(C)C)C(C)(C)C)cc1 (stereo partly drawn) [GDI-027, (1R,2S,5S)-N-(cyano(isoquinolin-4-yl)methyl)-3-((S)-2-((4-(dimethylamino)phenyl)sulfonamido)-3,3-dimethylbutyryl)-6,6-dimethyl-3-azabicyclo[3.1.0]hexane-2-carboxamide] | 7.6 | 
5 | Cc1ccc(S(=O)(=O)N[C@H](C(=O)N2C[C@H]3[C@@H]([C@H]2C(=O)NC(C#N)c2cncc4ccccc24)C3(C)C)C(C)(C)C)cc1 (stereo partly drawn) [GDI-023, (1R,2S,5S)-N-(cyano(isoquinolin-4-yl)methyl)-3-((S)-3,3-dimethyl-2-((4-methylphenyl)sulfonamido)butanoyl)-6,6-dimethyl-3-azabic yclo[3.1.0]hexane-2-carboxamide] | 15 | 
6 | CC(=O)N[C@H](C(=O)N1C[C@H]2[C@@H]([C@H]1C(=O)NC(C#N)c1cncc(-c3nc(C)no3)c1)C2(C)C)C(C)(C)C (stereo partly drawn) [GDI-015, (1R,2S,5S)-3-((S)-2-acetamido-3,3-dimethylbutyryl)-N-(cyano(5-(3-methyl-1,2,4-oxadiazol-5-yl)pyridin-3-yl)methyl)-6,6-dimethy 1-3-azabicyclo[3.1.0]hexane-2-carboxamide] | 120 | 
7 | CC(C)(C)[C@H](NS(=O)(=O)C(F)(F)F)C(=O)N1C[C@H]2[C@@H]([C@H]1C(=O)NC(C#N)c1cncc3ccccc13)C2(C)C (stereo partly drawn) [GDI-029, (1R,2S,5S)-N-(cyano(isoquinolin-4-yl)methyl)-3-((S)-3,3-dimethyl-2-((trifluoromethyl)sulfonamido)butanoyl)-6,6-dimethyl-3-azabic yclo[3.1.0]hexane-2-carboxamide] | 23 | 
8 | CN(C)c1ccc(S(=O)(=O)N[C@H](C(=O)N2C[C@H]3[C@@H]([C@H]2C(=O)NC(C#N)c2cncc(Br)c2)C3(C)C)C(C)(C)C)cc1 (stereo partly drawn) [GDI-026, (1R,2S,5S)-N-((5-bromopyridin-3-yl) (cyano)methyl)-3-((S)-2-((4-(dimethylamino)phenyl)sulfonamido)-3,3-dimethylbutanoyl)-6,6-d imethyl-3-azabicyclo[3.1.0]hexane-2-carboxamide] | 17 | 
9 | Cc1ccc(S(=O)(=O)N[C@H](C(=O)N2C[C@H]3[C@@H]([C@H]2C(=O)NC(C#N)c2cncc(Br)c2)C3(C)C)C(C)(C)C)cc1 (stereo partly drawn) [GDI-021, (1R,2S,5S)-N-((5-bromopyridin-3-yl) (cyano)methyl)-3-((S)-3,3-dimethyl-2-((4-methylphenyl)sulfonamido)butanoyl)-6,6-dimethyl-3-azabicyclo[3.1.0]hexane-2-carboxamide] | 19 | 
10 | CN(C)c1ccc(S(=O)(=O)N[C@H](C(=O)N2C[C@H]3[C@@H]([C@H]2C(=O)NC(C#N)c2cncc(C(F)(F)F)c2)C3(C)C)C(C)(C)C)cc1 (stereo partly drawn) [GDI-019, (1R,2S,5S)-N-(cyano(5-(trifluoromethyl)pyridin-3-yl)methyl)-3-((S)-2-((4-(dimethylamino)phenyl)sulfonamido)-3,3-dimethylbutanoyl) -6,6-dimethyl-3-azabicyclo[3.1.0]hexane-2-carboxamide] | 22 | 
11 | CC(=O)N[C@H](C(=O)N1C[C@H]2[C@@H]([C@H]1C(=O)NC(C#N)c1cncc3c(F)cccc13)C2(C)C)C(C)(C)C (stereo partly drawn) [GDI-033, (1R,2S,5S)-3-((S)-2-acetamido-3,3-dimethylbutyryl)-N-(cyano(8-fluoroisoquinolin-4-yl)methyl)-6,6-dimethyl-3-azabicyclo[3.1.0]h exane-2-carboxamide] | 56 | 
12 | CC(=O)N[C@H](C(=O)N1C[C@H]2[C@@H]([C@H]1C(=O)NC(C#N)c1cncc(Br)c1C)C2(C)C)C(C)(C)C (stereo partly drawn) [GDI-009, (1R,2S,5S)-3-((S)-2-acetamido-3,3-dimethylbutyryl)-N-((5-bromo-4-methylpyridin-3-yl)(cyano)methyl)-6,6-dimethyl-3-azabicycl o[3.1.0]hexane-2-carboxamide] | 53 | 
13 | CC(C)(C)[C@H](NS(=O)(=O)C(F)(F)F)C(=O)N1C[C@H]2[C@@H]([C@H]1C(=O)NC(C#N)c1cncc(Br)c1)C2(C)C (stereo partly drawn) [GDI-025, (1R,2S,5S)-N-((5-bromopyridin-3-yl) (cyano)methyl)-3-((S)-3,3-dimethyl-2-((trifluoromethyl)sulfonamido)butanoyl)-6,6-dimethyl-3-azabicyclo[3.1.0]hexane-2-carboxamide] | 19 | 
14 | CC(=O)N[C@H](C(=O)N1C[C@H]2[C@@H]([C@H]1C(=O)NC(C#N)c1cncc(-c3cnn(C)c3)c1)C2(C)C)C(C)(C)C (stereo partly drawn) [GDI-030, (1R,2S,5S)-3-((S)-2-acetamido-3,3-dimethylbutyryl)-N-(cyano(5-(1-methyl-1H-pyrazol-4-yl)pyridin-3-yl)methyl)-6,6-dimethyl-3-azabicyclo[3.1.0]hexane-2-carboxamide] | 18 | 
15 | CNC(=O)c1cncc(C(C#N)NC(=O)[C@@H]2[C@@H]3[C@H](CN2C(=O)[C@@H](NC(C)=O)C(C)(C)C)C3(C)C)c1 (stereo partly drawn) [GDI-018, (1R,2S,5S)-3-((S)-2-acetamido-3,3-dimethylbutyryl)-N(cyano(5-(methylcarbamoyl)pyridin-3-yl)methyl)-6,6-dimethyl-3-azabicycl o[3.1.0]hexane-2-carboxamide] | 110 | 
16 | CC(C)(C)[C@H](NC(=O)C(F)(F)F)C(=O)N1C[C@H]2[C@@H]([C@H]1C(=O)NC(C#N)c1cncc(C(F)(F)F)c1)C2(C)C (stereo partly drawn) [GDI-012, (1R,2S,5S)-N-(cyano (5-(trifluoromethyl)pyridin-3-yl)methyl)-3-((S)-3,3-dimethyl-2-(2,2,2-trifluoroacetylamino)butyryl)-6,6-dimethyl-3-azabicyclo[3.1.0]hexane-2-carboxamide] | 24 | AUC(0-inf) [2]: 7140 ng·h/mL; AUC(0-t) [2]: 7080 ng·h/mL; Cmax [2]: 2120 ng/mL; half-life [2]: 1.92 h
17 | CC(=O)N[C@H](C(=O)N1C[C@H]2[C@@H]([C@H]1C(=O)NC(C#N)c1cncc(-n3cccn3)c1)C2(C)C)C(C)(C)C (stereo partly drawn) [GDI-028, (1R,2S,5S)-N-((5-(1H-pyrazol-1-yl)pyridin-3-yl)(cyano)methyl)-3-((S)-2-acetylamino-3,3-dimethylbutanoyl)-6,6-dimethyl-3-azabi cyclo[3.1.0]hexane-2-carboxamide] | 2.4 | 
18 | CC(=O)N[C@H](C(=O)N1C[C@H]2[C@@H]([C@H]1C(=O)NC(C#N)c1cncc(-c3nc(C(C)C)no3)c1)C2(C)C)C(C)(C)C (stereo partly drawn) [GDI-031, (1R,2S,5S)-3-((S)-2-acetamido-3,3-dimethylbutyryl)-N-(cyano(5-(3-isopropyl-1,2,4-oxadiazol-5-yl)pyridin-3-yl)methyl)-6,6-dimet hyl-3-azabicyclo[3.1.0]hexane-2-carboxamide] | 100 | 
19 | CC1(C)[C@@H]2[C@@H](C(=O)NC(C#N)c3cncc(Br)c3)N(C(=O)OCc3ccccc3Cl)C[C@@H]21 (stereo partly drawn) [GDI-013, 2-chlorobenzyl((1R,2S,5S)-2-((5-bromopyridin-3-yl)(cyano)methyl)carbamoyl)-6,6-dimethyl-3-azabicyclo[3.1.0]hexane-3-carb oxylate] | 340 | 
20 | CC(C)(C)[C@H](NC(=O)C(F)(F)F)C(=O)N1C[C@H]2[C@@H]([C@H]1C(=O)NC(C#N)c1cncc(C#N)c1)C2(C)C (stereo partly drawn) [GDI-014, (1R,2S,5S)-N-(cyano(5-cyanopyridin-3-yl)methyl)-3-((S)-3,3-dimethyl-2-(2,2,2-trifluoroacetylamino)butyryl)-6,6-dimethyl-3-azabicycl o[3.1.0]hexane-2-carboxamide] | 46 | AUC(0-inf) [2]: 7820 ng·h/mL; AUC(0-t) [2]: 7800 ng·h/mL; Cmax [2]: 5000 ng/mL; half-life [2]: 0.832 h
21 | COC(=O)c1cncc(C(C#N)NC(=O)[C@@H]2[C@@H]3[C@H](CN2C(=O)[C@@H](NC(C)=O)C(C)(C)C)C3(C)C)c1 (stereo in doubt) [GDI-034, 5-((1R,2S,5S)-3-((S)-2-acetamido-3,3-dimethylbutyryl)-6,6-dimethyl-3-azabicyclo[3.1.0]hexane-2-carboxamido)(cyano)methyl)methyl nicotinate] | 62 | 
22 | CC(=O)N[C@H](C(=O)N1C[C@H]2[C@@H]([C@H]1C(=O)NC(C#N)c1cnc3[nH]ccc3c1)C2(C)C)C(C)(C)C (stereo partly drawn) [GDI-020, (1R,2S,5S)-3-((S)-2-acetamido-3,3-dimethylbutyryl)-N(cyano(1H-pyrrole[2,3-b]pyridin-5-yl)methyl)-6,6-dimethyl-3-azabicyclo[3. 1.0]hexane-2-carboxamide] | 19 | 
